{"source": "patent US11371016B2", "about": "“Method for producing retinal tissue” (SUMITOMO PHARMA CO., LTD., priority 2016, dated 2022)", "key": {"[1]": {"system": "human iPS cells (1231A3 strain)", "test": "Differentiation of feeder-free cultured human iPS cells into retinal tissue; immunostaining of cell aggregates for Rx and Chx10", "type": "cell-based", "conditions": "IWR-1e 3 μM in step 2 and step 3, BMP4 1.5 nM from day 3", "experimental": "Human iPS cells (1231A3 strain, obtained from Kyoto University) were cultured under feeder free according to the method described in “Scientific Reports, 4, 3594 (2014)”. As a feeder-free medium, StemFit (registered trade mark) medium (AK03N, manufactured by Ajinomoto Co., Inc.) was used, and as a feeder-free scaffold, Laminin 511-E8 (manufactured by Nippi, Inc.) was used. As a specific maintenance culture operation, subconfluent human iPS cells (1231A3 strain) were first washed with PBS, and dispersed into single cells by using TrypLE Select (manufactured by Life Technologies). Thereafter, the aforementioned human iPS cells dispersed into single cells were seeded in a plastic culture dish coated with Laminin 511-E8, and cultured under feeder-free conditions in StemFit (registered trade mark) medium in the presence of Y27632 (ROCK inhibiting substance, 10 μM). When a 6-well plate (manufactured by Iwaki, for cell culture, culture area 9.4 cm^2) was used as the aforementioned plastic culture dish, the number of plated cells for the aforementioned human iPS cells dispersed into single cells was adjusted to 1.0×10^4. One day after seeding, the entire amount of the medium was changed with StemFit (registered trade mark) medium free of Y27632. Thereafter, once in 1-2 days, the entire amount of the medium was changed with StemFit (registered trade mark) medium free of Y27632. Thereafter, the cells were cultured until 6 days after seeding when they became subconfluent (60% of culture area is covered with cells). As a specific example of step 1 (Precondition) of the present production method, the following operation was performed. Subconfluent human iPS cells (1231A3 strain) were first washed with PBS, and dispersed into single cells by using TrypLE Select (manufactured by Life Technologies). Thereafter, the aforementioned human iPS cells dispersed into single cells were seeded in a plastic culture dish (manufactured by Iwaki) coated with Laminin 511-E8, and cultured under feeder-free conditions in StemFit (registered trade mark) medium in the presence of Y27632 (ROCK inhibiting substance, 10 μM). When a 6-well plate (manufactured by Iwaki, culture area 9.4 cm^2) was used as the aforementioned plastic culture dish, the number of plated cells for the aforementioned human iPS cells dispersed into single cells was adjusted to 1.0×10^4. When a 60 mm dish (manufactured by Iwaki, for cell culture, culture area 21 cm^2) was used as the aforementioned plastic culture dish, the number of plated cells for the aforementioned human iPS cells dispersed into single cells was adjusted to 2.0×10^4. One day after seeding, the entire amount of the medium was changed with StemFit (registered trade mark) medium free of Y27632. […]"}, "[2]": {"system": "human iPS cells (1231A3 strain)", "test": "Differentiation of feeder-free cultured human iPS cells into retinal tissue; immunostaining of cell aggregates for Rx and Chx10", "type": "cell-based", "conditions": "day 17; for proportion of Rx positive cells in the total cells: BMP4 1.5 nM from day 3"}, "[3]": {"conditions": "Precondition SB431542 5 μM + SAG 300 nM in step 1, day 17"}}, "data": [{"smiles": "O=C(Nc1cccc2cccnc12)c1ccc(N2C(=O)[C@@H]3[C@H](C2=O)[C@@H]2C=C[C@H]3C2)cc1", "note": "[IWR-1e, 4-[(3aR,4S,7R,7aS)-1,3,3a,4,7,7a-hexahydro-1,3-dioxo-4,7-methano-2H-isoindol-2-yl]-N-8-quinolinyl-benzamide]", "values": [{"measurement": "Chx10 positive (strong positive) cells", "setting": "[1]; [3]", "value": "about 60%"}, {"measurement": "proportion of Rx positive cells in the total cells", "setting": "[1]; [3]", "value": "about 60%"}, {"measurement": "Chx10 positiveness in the cell aggregate", "setting": "[1]; no Precondition in step 1, day 17", "value": "weak Chx10 positiveness"}, {"measurement": "proportion of Rx positive cells in the total cells", "setting": "[1]; no Precondition in step 1, day 17 of suspension culture", "value": "about 40%"}, {"measurement": "proportion of Rx positive cells in the total cells", "setting": "[2]; Example 2 Condition 3: Precondition SAG 300 nM in step 1, IWR-1e 3 μM in step 2 and step 3", "value": "about 90%"}, {"measurement": "Chx10 status of Rx positive cells (serial sections)", "setting": "[2]; Example 2 Condition 3: Precondition SAG 300 nM, IWR-1e 3 μM in step 2 and step 3", "value": "Chx10 co-positive"}, {"measurement": "proportion of Rx positive cells in the total cells", "setting": "[2]; Example 2 Condition 5: Precondition SAG 300 nM in step 1, SAG 30 nM in step 2, IWR-1e 3 μM in step 2 and step 3", "value": "about 90%"}, {"measurement": "Chx10 status of Rx positive cells (serial sections)", "setting": "[2]; Example 2 Condition 5: Precondition SAG 300 nM, SAG 30 nM in step 2, IWR-1e 3 μM in step 2 and step 3", "value": "Chx10 co-positive"}]}, {"smiles": "CNC1CCC(N(Cc2cccc(-c3ccncc3)c2)C(=O)c2sc3ccccc3c2Cl)CC1", "note": "(stereo not shown) [SAG]", "values": [{"measurement": "proportion of Rx positive cells in the total cells", "setting": "[2]; Example 2 Condition 2: Precondition SAG 300 nM one day in step 1, no Wnt inhibiting substance, no SAG in step 2", "value": "about 40%"}, {"measurement": "Chx10 status of Rx positive cells (serial sections)", "setting": "[2]; Example 2 Condition 2: Precondition SAG 300 nM, no IWR-1e, no SAG in step 2", "value": "Chx10 co-positive"}, {"measurement": "proportion of Rx positive cells in the total cells", "setting": "[2]; Example 2 Condition 4: Precondition SAG 300 nM in step 1, SAG 30 nM in step 2, no IWR-1e", "value": "about 60%"}, {"measurement": "Chx10 status of Rx positive cells (serial sections)", "setting": "[2]; Example 2 Condition 4: Precondition SAG 300 nM, SAG 30 nM in step 2, no IWR-1e", "value": "Chx10 co-positive"}, {"measurement": "neural tissue formation", "setting": "[2]; Example 2 Conditions 2-5: Precondition treatment with SAG 300 nM in step 1, versus Condition 1 without Precondition (not formed)", "value": "a neural tissue was formed"}]}]}
